According to the supplement of paper PMC10627819:

Columns and labels:
B. subtilis 168 [1] = assay: fitness (endpoint OD595 vs no drug) (fraction); higher = more growth
How it was run: (§1)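 At 37 °C, bacteria in TSB, LB Lennox or CY were grown in 384-well plates from a starting OD595 of 0.01. OD595 was measured every 30 min for 14 h, with the first reading used as background. Fitness is the optical density at the switch to stationary phase as a fraction of the robust mean of no-drug control wells, capped at 1.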

S. pneumoniae D39V [2] = assay: as above
How it was run: as §1

S. aureus Newman = assay: Bliss interaction score (quartile over a dose matrix) (fitness difference); higher = more antagonism (negative = synergy)
How it was run: (§2)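 OD595 was read at entry into stationary phase and expressed relative to the robust mean of the no-drug wells on the same plate, capped at 1. The resulting ratio is the fitness value. The Bliss score, observed fitness minus product-based expected fitness with single-drug fitness inferred from combinations, is summarised by quartiles over technical, biological and donor/recipient replicates.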

B. subtilis 168 [3] = assay: as above
How it was run: as §2

S. pneumoniae D39V [4] = assay: as above
How it was run: as §2

S. aureus DSM 20231 = assay: as above
How it was run: as §2
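Wherever Bliss interaction score (quartile over a dose matrix) is given: first quartile when negative (synergy) and third quartile when positive (antagonism).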

CCCCCCCCCC(=O)N[C@@H](Cc1c[nH]c2ccccc12)C(=O)N[C@H](CC(N)=O)C(=O)N[C@@H](CC(=O)O)C(=O)N[C@@H]1C(=O)NCC(=O)N[C@@H](CCCN)C(=O)N[C@@H](CC(=O)O)C(=O)N[C@H](C)C(=O)N[C@@H](CC(=O)O)C(=O)NCC(=O)N[C@H](CO)C(=O)N[C@@H]([C@H](C)CC(=O)O)C(=O)N[C@@H](CC(=O)c2ccccc2N)C(=O)O[C@@H]1C [Daptomycin] + C[C@H]1COc2c(N3CCN(C)CC3)c(F)cc3c(=O)c(C(=O)O)cn1c23 [Levofloxacin]
fitness, B. subtilis 168 [1], one replicate
Conditions	first compound 0.125 µg/mL	first compound 0.25 µg/mL	first compound 0.5 µg/mL	first compound 1 µg/mL
partner 0.001 µg/mL	0.992	≥ 1	0.978	–
partner 0.002 µg/mL	0.949	–	–	0.753
partner 0.0039 µg/mL	0.891	–	–	0.742
partner 0.0078 µg/mL	–	0.829	0.882	0.723

Conditions	fitness
B. subtilis 168 [1], first compound 0.125 µg/mL, partner 0.0312 µg/mL	0.0386
B. subtilis 168 [1], first compound 0.125 µg/mL, partner 0.0625 µg/mL	0.0435
B. subtilis 168 [1], first compound 0.125 µg/mL, partner 0.125 µg/mL	0.0465
B. subtilis 168 [1], first compound 0.25 µg/mL, partner 0.002 µg/mL	0.949
B. subtilis 168 [1], first compound 0.25 µg/mL, partner 0.0039 µg/mL	0.95
B. subtilis 168 [1], first compound 0.25 µg/mL, partner 0.0312 µg/mL	0.043
B. subtilis 168 [1], first compound 0.25 µg/mL, partner 0.0625 µg/mL	0.0534
B. subtilis 168 [1], first compound 0.25 µg/mL, partner 0.125 µg/mL	0.073
B. subtilis 168 [1], first compound 0.5 µg/mL, partner 0.002 µg/mL	0.915
B. subtilis 168 [1], first compound 0.5 µg/mL, partner 0.0039 µg/mL	0.904
B. subtilis 168 [1], first compound 0.5 µg/mL, partner 0.0312 µg/mL	0.0448
B. subtilis 168 [1], first compound 0.5 µg/mL, partner 0.0625 µg/mL	0.071
B. subtilis 168 [1], first compound 0.5 µg/mL, partner 0.125 µg/mL	0.0639
S. pneumoniae D39V [2], first compound 1 µg/mL, partner 0.1725 µg/mL	0.909
S. pneumoniae D39V [2], first compound 1 µg/mL, partner 0.2 µg/mL	0.867
S. pneumoniae D39V [2], first compound 1 µg/mL, partner 0.345 µg/mL	0.794
S. pneumoniae D39V [2], first compound 1 µg/mL, partner 0.4 µg/mL	0.678
S. pneumoniae D39V [2], first compound 1 µg/mL, partner 0.69 µg/mL	0.531
S. pneumoniae D39V [2], first compound 1 µg/mL, partner 0.8 µg/mL	0.132
S. pneumoniae D39V [2], first compound 2 µg/mL, partner 0.1725 µg/mL	0.917
S. pneumoniae D39V [2], first compound 2 µg/mL, partner 0.2 µg/mL	0.88
S. pneumoniae D39V [2], first compound 2 µg/mL, partner 0.345 µg/mL	0.813
S. pneumoniae D39V [2], first compound 2 µg/mL, partner 0.4 µg/mL	0.675
S. pneumoniae D39V [2], first compound 2 µg/mL, partner 0.69 µg/mL	0.366
S. pneumoniae D39V [2], first compound 2 µg/mL, partner 0.8 µg/mL	0.165
S. pneumoniae D39V [2], first compound 4 µg/mL, partner 0.1725 µg/mL	0.949
S. pneumoniae D39V [2], first compound 4 µg/mL, partner 0.2 µg/mL	0.818
S. pneumoniae D39V [2], first compound 4 µg/mL, partner 0.345 µg/mL	0.86
S. pneumoniae D39V [2], first compound 4 µg/mL, partner 0.4 µg/mL	0.551
S. pneumoniae D39V [2], first compound 4 µg/mL, partner 0.69 µg/mL	0.615
S. pneumoniae D39V [2], first compound 4 µg/mL, partner 0.8 µg/mL	0.133

Conditions	Bliss interaction score
B. subtilis 168 [3]	0.0436
S. aureus DSM 20231	-0.0494
S. aureus Newman	-0.0469
S. pneumoniae D39V [4]	-0.18

CCCCCCCCCC(=O)N[C@@H](Cc1c[nH]c2ccccc12)C(=O)N[C@H](CC(N)=O)C(=O)N[C@@H](CC(=O)O)C(=O)N[C@@H]1C(=O)NCC(=O)N[C@@H](CCCN)C(=O)N[C@@H](CC(=O)O)C(=O)N[C@H](C)C(=O)N[C@@H](CC(=O)O)C(=O)NCC(=O)N[C@H](CO)C(=O)N[C@@H]([C@H](C)CC(=O)O)C(=O)N[C@@H](CC(=O)c2ccccc2N)C(=O)O[C@@H]1C [Daptomycin] + C[C@H]1c2cccc(O)c2C(=O)C2=C(O)[C@]3(O)C(=O)C(C(N)=O)=C(O)[C@@H](N(C)C)[C@@H]3[C@@H](O)[C@@H]21 [Doxycycline]
Conditions	fitness
B. subtilis 168 [1], first compound 0.125 µg/mL, partner 0.02 µg/mL	0.857
B. subtilis 168 [1], first compound 0.125 µg/mL, partner 0.04 µg/mL	0.794
B. subtilis 168 [1], first compound 0.125 µg/mL, partner 0.08 µg/mL	0.605
B. subtilis 168 [1], first compound 0.25 µg/mL, partner 0.02 µg/mL	0.871
B. subtilis 168 [1], first compound 0.25 µg/mL, partner 0.04 µg/mL	0.757
B. subtilis 168 [1], first compound 0.25 µg/mL, partner 0.08 µg/mL	0.595
B. subtilis 168 [1], first compound 0.5 µg/mL, partner 0.02 µg/mL	0.83
B. subtilis 168 [1], first compound 0.5 µg/mL, partner 0.04 µg/mL	0.771
S. pneumoniae D39V [2], first compound 1 µg/mL, partner 0.0155 µg/mL	0.733
S. pneumoniae D39V [2], first compound 2 µg/mL, partner 0.0155 µg/mL	0.738
S. pneumoniae D39V [2], first compound 4 µg/mL, partner 0.0155 µg/mL	0.795

fitness, one replicate
Conditions	first compound 1 µg/mL	first compound 2 µg/mL	first compound 4 µg/mL
B. subtilis 168 [1], partner 0.02 µg/mL	0.624	–	–
B. subtilis 168 [1], partner 0.04 µg/mL	0.641	–	–
B. subtilis 168 [1], partner 0.08 µg/mL	0.188	–	–
S. pneumoniae D39V [2], partner 0.003875 µg/mL	0.928	0.934	0.981
S. pneumoniae D39V [2], partner 0.00775 µg/mL	0.866	0.878	0.927

Conditions	Bliss interaction score
B. subtilis 168 [3]	0.0559
S. aureus DSM 20231	0.0825
S. aureus Newman	0.0504
S. pneumoniae D39V [4]	-0.249
